Source: patent US12668599B2, “Heterobifunctional compounds and methods of treating disease” (Halda Therapeutics OpCo, Inc., priority 2023, dated 2026)

Tests used:
[1] = system: T-Rex 293 cell line SC3 cells lacking increased expression of androgen receptor protein; test: Cellular growth inhibition, T-Rex 293 SC3 cells without doxycycline (CellTiter-Glo 2.0, 72 hours); format: cell-based; details: T-Rex 293 SC3 cells not exposed to doxycycline (no increased androgen receptor expression)
VCaP cells = test: Cellular growth inhibition assay for VCaP cells (CellTiter-Glo 2.0, 72 hours); format: cell-based, human; details: for GI50: CellTiter-Glo 2.0; for Ratio of GI50's: GI50 of the top compound in the pair divided by GI50 of the lower compound
[2] = system: T-Rex 293 cell line SC3 cells having increased expression of androgen receptor protein due to exposure to doxycycline; test: Cellular growth inhibition, T-Rex 293 SC3 cells with doxycycline-induced androgen receptor (CellTiter-Glo 2.0, 72 hours); format: cell-based; details: for GI50: T-Rex 293 SC3 cells with 10 ng/ml doxycycline (increased androgen receptor expression), 72 hours, CellTiter-Glo 2.0; for Ratio of GI50's: GI50 of the top compound in the pair divided by GI50 of the lower compound, T-Rex 293 SC3 cells with doxycycline-induced androgen receptor

Row | Compound | GI50 ([1]; 72 h) | GI50 (VCaP cells; Homo sapiens, VCaP, 72 h) | GI50 [2] | GI50 [1] | GI50 (VCaP cells; 72 hours) | Ratio of GI50's (VCaP cells) | Ratio of GI50's [2]
1 | COc1cc(O[C@H]2CC[C@H](NC(=O)c3ccc(N4CCC5(CCN(c6ccc(C7=N[C@@H](C)c8nnc(C)n8-c8sc(C)c(C)c87)cc6Cl)CC5)C4)nn3)CC2)ccc1C#N [Compound I-73, 6-[8-[2-chloro-4-[(9S)-4,5,9,13-tetramethyl-3-thia-1,8,11,12-tetrazatricyclo[8.3.0.0^2,6]trideca-2 (6),4,7,10,12-pentaen-7-yl]phenyl]-2,8-diazaspiro[4.5]decan-2-yl]-N-[4-(4-cyano-3-methoxy-phenoxy)cyclohexyl]pyridazine-3-carboxamide] | < 500 nM | < 500 nM | < 500 nM | – | – | – | –
2 | COc1cc(O[C@H]2CC[C@H](NC(=O)c3ccc(N4CCC5(CCN(c6ccc(C7=N[C@@H](C)c8nnc(C)n8-c8sc(C)c(C)c87)c(Cl)c6)CC5)C4)nn3)CC2)ccc1C#N [Compound I-74] | > 3000 nM | < 500 nM | < 500 nM | – | – | – | –
3 | COc1cc(O[C@H]2CC[C@H](NC(=O)c3ccc(N4CCC5(CCN(c6ccc(C7=N[C@@H](C)c8nnc(C)n8-c8sc(C)c(C)c87)c(OC)c6)CC5)C4)nn3)CC2)ccc1C#N [Compound I-75] | < 500 nM | < 500 nM | < 500 nM | – | – | – | –
4 | COc1cc(O[C@H]2CC[C@H](NC(=O)c3ccc(N4C[C@@H]5CN(c6ccc(C7=N[C@@H](C)c8nnc(C)n8-c8sc(C)c(C)c87)cc6F)C[C@@H]5C4)nn3)CC2)ccc1C#N [Compound I-76] | < 500 nM | < 500 nM | < 500 nM | – | – | – | –
5 | COc1cc(O[C@H]2CC[C@H](NC(=O)c3ccc(N4C[C@H]5CN(c6ccc(C7=N[C@@H](C)c8nnc(C)n8-c8sc(C)c(C)c87)c(F)c6)C[C@H]5C4)nn3)CC2)ccc1C#N [Compound I-77] | < 500 nM | < 500 nM | < 500 nM | – | – | – | –
6 | COc1cc(O[C@H]2CC[C@H](NC(=O)c3ccc(N4CC56CCCCC5(CN(c5ccc(C7=N[C@@H](C)c8nnc(C)n8-c8sc(C)c(C)c87)cc5)C6)C4)nn3)CC2)ccc1C#N (stereo partly shown) [Compound I-78] | < 500 nM | < 500 nM | < 500 nM | – | – | – | –
7 | COc1cc(O[C@H]2CC[C@H](NC(=O)c3ccc(N4CCC5(CCN(c6ccc(C7=N[C@@H](C)c8nnc(C)n8-c8sc(C)c(C)c87)cc6F)C5)C4)nn3)CC2)ccc1C#N (stereo partly drawn) [Compound I-79, N-[4-(4-cyano-3-methoxy-phenoxy)cyclohexyl]-6-[7-[2-fluoro-4-[(9S)-4,5,9,13-tetramethyl-3-thia-1,8,11,12-tetrazatricyclo[8.3.0.0^2,6]trideca-2 (6),4,7,10,12-pentaen-7-yl]phenyl]-2,7-diazaspiro[4.4]nonan-2-yl]pyridazine-3-carboxamide] | < 500 nM | < 500 nM | < 500 nM | – | – | – | –
8 | COc1cc(O[C@H]2CC[C@H](NC(=O)c3ccc(N4CCC5(CCN(c6ccc(C7=N[C@@H](C)c8nnc(C)n8-c8sc(C)c(C)c87)cc6F)C5)C4)nn3)CC2)ccc1C#N (stereo partly shown) [Compound I-80] | – | – | < 500 nM | < 500 nM | < 500 nM | – | –
9 | COc1cc(O[C@H]2CC[C@H](NC(=O)c3ccc(N4CCC5(CCCN(c6ccc(C7=N[C@@H](C)c8nnc(C)n8-c8sc(C)c(C)c87)cc6)C5)CC4)nn3)CC2)ccc1C#N [Compound I-81, N-((1r,4r)-4-(4-cyano-3-methoxyphenoxy)cyclohexyl)-6-(2-(4-((S)-2,3,6,9-tetramethyl-6H-thieno[3,2-f][1,2,4]triazolo[4,3-a][1,4]diazepin-4-yl)phenyl)-2,9-diazaspiro[5.5]undecan-9-yl) pyridazine-3-carboxamide] | < 500 nM | < 500 nM | < 500 nM | – | – | – | –
10 | COc1cc(O[C@H]2CC[C@H](NC(=O)c3ccc(N4CCC5(CC4)CC(Oc4ccc(C6=N[C@@H](Cc7ncco7)c7nnc(C)n7-c7sc(C)c(C)c76)cc4)C5)nn3)CC2)ccc1C#N [Compound I-83, N-[4-(4-cyano-3-methoxy-phenoxy)cyclohexyl]-6-[2-[4-[(9S)-4,5,13-trimethyl-9-(oxazol-2-ylmethyl)-3-thia-1,8,11,12-tetrazatricyclo[8.3.0.0^2,6]trideca-2 (6),4,7,10,12-pentaen-7-yl]phenoxy]-7-azaspiro[3.5]nonan-7-yl]pyridazine-3-carboxamide] | < 500 nM | < 500 nM | < 500 nM | – | – | 1 | 1
11 | COc1cc(O[C@H]2CC[C@H](NC(=O)c3ccc(N4CCC5(CCC(c6ccc(C7=N[C@@H](C)c8nnc(C)n8-c8sc(C)c(C)c87)cc6Cl)CC5)C4)nn3)CC2)ccc1C#N (stereo partly shown) [Compound I-84] | – | < 500 nM | < 500 nM | < 500 nM | – | – | –
12 | COc1cc(O[C@H]2CC[C@H](NC(=O)c3ccc(N4CCC5(CCC(c6ccc(C7=N[C@@H](C)c8nnc(C)n8-c8sc(C)c(C)c87)cc6Cl)CC5)C4)nn3)CC2)ccc1C#N (stereo partly shown) [Compound I-85] | – | – | < 500 nM | > 3000 nM | < 500 nM | – | –
13 | COc1cc(O[C@H]2CC[C@H](NC(=O)c3ccc(N4CCC5(CCC(c6ccc(C7=N[C@@H](C)c8nnc(C)n8-c8sc(C)c(C)c87)cn6)CC5)C4)nn3)CC2)ccc1C#N (stereo partly drawn) [Compound I-86, N-[4-(4-cyano-3-methoxy-phenoxy)cyclohexyl]-6-[8-[5-[(9S)-4,5,9,13-tetramethyl-3-thia-1,8,11,12-tetrazatricyclo[8.3.0.0^2,6]trideca-2 (6),4,7,10,12-pentaen-7-yl]-2-pyridyl]-2-azaspiro[4.5]decan-2-yl]pyridazine-3-carboxamide] | – | < 500 nM | < 500 nM | > 3000 nM | – | – | –
14 | COc1cc(O[C@H]2CC[C@H](NC(=O)c3ccc(N4CCC5(CCC(c6ccc(C7=N[C@@H](C)c8nnc(C)n8-c8sc(C)c(C)c87)cn6)CC5)C4)nn3)CC2)ccc1C#N (stereo partly shown) [Compound I-87] | – | – | < 500 nM | < 500 nM | < 500 nM | – | –
15 | COc1cc(O[C@H]2CC[C@H](NC(=O)c3ccc(N4CCC5(CCC(c6ccc(C7=N[C@@H](C)c8nnc(C)n8-c8sc(C)c(C)c87)nc6)CC5)C4)nn3)CC2)ccc1C#N (stereo partly shown) [Compound I-88] | < 500 nM | < 500 nM | < 500 nM | – | – | – | –
16 | COc1cc(O[C@H]2CC[C@H](NC(=O)c3ccc(N4CCC5(CCC(c6ccc(C7=N[C@@H](C)c8nnc(C)n8-c8sc(C)c(C)c87)nc6)CC5)C4)nn3)CC2)ccc1C#N (stereo partly shown) [Compound I-89] | – | – | < 500 nM | < 500 nM | 500 to 1500 nM | – | –
17 | COc1cc(O[C@H]2CC[C@H](NC(=O)c3ccc(N4CCC5(CCN(c6ccc(C7=N[C@@H](C)c8nnc(C)n8-c8sc(C)c(C)c87)cc6OC)CC5)C4)nn3)CC2)ccc1C#N [Compound I-90] | < 500 nM | < 500 nM | < 500 nM | – | – | – | –
18 | COc1cc(O[C@H]2CC[C@H](NC(=O)c3ccc(N4C[C@]5(F)CN(c6ccc(C7=N[C@@H](C)c8nnc(C)n8-c8sc(C)c(C)c87)cc6)C[C@]5(F)C4)nn3)CC2)ccc1C#N [Compound I-91] | < 500 nM | < 500 nM | < 500 nM | – | – | – | –
19 | COc1cc(O[C@H]2CC[C@H](NC(=O)c3ccc(N4CCC5(CCN(c6ccc(C7=N[C@@H](C)c8nnc(C)n8-c8sc(C)c(C)c87)c(F)c6)C5)C4)nn3)CC2)ccc1C#N (stereo partly shown) [Compound I-92] | < 500 nM | < 500 nM | < 500 nM | – | – | – | –
20 | COc1cc(O[C@H]2CC[C@H](NC(=O)c3ccc(N4CCC5(CCN(c6ccc(C7=N[C@@H](C)c8nnc(C)n8-c8sc(C)c(C)c87)c(F)c6)C5)C4)nn3)CC2)ccc1C#N (stereo partly shown) [Compound I-93] | – | – | < 500 nM | < 500 nM | < 500 nM | – | –
21 | COc1cc(O[C@H]2CC[C@H](NC(=O)c3ccc(N4CCC5(CCC(c6ccc(C7=N[C@@H](C)c8nnc(C)n8-c8sc(C)c(C)c87)cc6)C5)C4)nn3)CC2)ccc1C#N (stereo partly shown) [Compound I-94] | < 500 nM | < 500 nM | < 500 nM | – | – | – | –
22 | COc1cc(O[C@H]2CC[C@H](NC(=O)c3ccc(N4CCC5(CCC(c6ccc(C7=N[C@@H](C)c8nnc(C)n8-c8sc(C)c(C)c87)cc6)C5)C4)nn3)CC2)ccc1C#N (stereo partly shown) [Compound I-95] | – | – | < 500 nM | < 500 nM | < 500 nM | – | –
23 | COc1cc(O[C@H]2CC[C@H](NC(=O)c3ccc(N4CCC5(CCC(c6ccc(C7=N[C@@H](C)c8nnc(C)n8-c8sc(C)c(C)c87)cc6)C5)C4)nn3)CC2)ccc1C#N (stereo partly shown) [Compound I-96] | – | – | < 500 nM | < 500 nM | < 500 nM | – | –
24 | COc1cc(O[C@H]2CC[C@H](NC(=O)c3ccc(N4CCC5(CCC(c6ccc(C7=N[C@@H](C)c8nnc(C)n8-c8sc(C)c(C)c87)cc6)C5)C4)nn3)CC2)ccc1C#N (stereo partly shown) [Compound I-97] | – | – | < 500 nM | < 500 nM | < 500 nM | – | –
25 | COc1cc(O[C@H]2CC[C@H](NC(=O)c3ccc(N4CCC5(CCCN(c6ccc(C7=N[C@@H](C)c8nnc(C)n8-c8sc(C)c(C)c87)cc6)C5)C4)nn3)CC2)ccc1C#N (stereo partly shown) [Compound I-99] | – | – | < 500 nM | < 500 nM | < 500 nM | – | –
26 | COc1cc(O[C@H]2CC[C@H](NC(=O)c3ccc(N4CCC5(CCC(c6ccc(C7=N[C@@H](Cc8ncco8)c8nnc(C)n8-c8sc(C)c(C)c87)cc6)CC5)C4)nn3)CC2)ccc1C#N (stereo partly drawn) [Compound I-100, N-((1r,4r)-4-(4-cyano-3-methoxyphenoxy)cyclohexyl)-6-(8-(4-((S)-2,3,9-trimethyl-6-(oxazol-2-ylmethyl)-6H-thieno[3,2-f][1,2,4]triazolo[4,3-a][1,4]diazepin-4-yl)phenyl)-2-azaspiro[4.5]decan-2-yl) pyridazine-3-carboxamide] | < 500 nM | < 500 nM | < 500 nM | – | – | – | –
27 | COc1cc(O[C@H]2CC[C@H](NC(=O)c3ccc(N4CCC5(CCC(c6ccc(C7=N[C@@H](Cc8ncco8)c8nnc(C)n8-c8sc(C)c(C)c87)cc6)CC5)C4)nn3)CC2)ccc1C#N (stereo partly shown) [Compound I-101] | – | – | < 500 nM | < 500 nM | < 500 nM | 1 | 1
